According to patent publication US20120004314A1, “ANTIMICROBIAL COMPOSITION” (AMBRIA DERMATOLOGY AB, priority 2008, published 2012):
Marks after values point to notes of the source that are not given here.

What was measured:
Type in all cases: cell-based
P. acnes = assay: MIC on blood agar plates against P. acnes; design: key: +++: Same growth as on the control plate without any chlorhexidine and/or pentane-1,5-diol; ++: Reduced growth compared to the control; +: Very poor growth; −: No growth
Description: The minimal inhibitory concentration (MIC) of pentane-1,5-diol and chlorhexidine against P. acnes was determined using bacteria concentrations of 6×10^6 (20 μl applicated onto blood agar plates). The results are depicted below in table 4 and 5.
The minimal inhibitory concentration (MIC) of pentane-1,5-diol combined with chlorhexidine against P. acnes was determined using bacteria concentrations of 6×10^6 (20 μl applicated onto blood agar plates).

S. aureus = assay: MIC on DST-agar plates against S. aureus; design: key: +++: Same growth as on the control plate without any chlorhexidine and/or pentane-1,5-diol; ++: Reduced growth compared to the control; +: Very poor growth; −: No growth
Description: The minimal inhibitory concentration (MIC) of pentane-1,5-diol and chlorhexidine against S. aureus was determined using bacteria concentrations of 6×10^6 (20 μl applicated onto DST-agar plates). The results are depicted below in table 1 and 2.
The minimal inhibitory concentration (MIC) of pentane-1,5-diol combined with chlorhexidine against S. aureus was determined using bacteria concentrations of 6×10^6 (20 μl applicated onto DST-agar plates).

S. pyogenes A CCUG 4208 = assay: MIC on blood agar plates against S. pyogenes A CCUG 4208; design: key: +++: Same growth as on the control plate without any chlorhexidine and/or pentane-1,5-diol; ++: Reduced growth compared to the control; +: Very poor growth; −: No growth
Description: The minimal inhibitory concentration (MIC) of pentane-1,5-diol combined with chlorhexidine against S. pyogenes A CCUG 4208 was determined using bacteria concentrations of 6×10^7 (20 μl applicated onto blood agar plates). The results are depicted below in table 7 and 8.

P. acnes (CCUG 1794) = assay: MIC by agar dilution assay, P. acnes
Description: (§1) Chlorhexidine digluconate (CHG) solution, 20% water, […]-25ML, (Sigma, St. Louis, USA) and PD, (BASF AG, Ludwigshafen, Germany) were used in the study and the following reference strains were tested; C. albicans (CCUG 5594), S. aureus (CCUG 17621) and P. acnes (CCUG 1794). Minimum inhibitory concentration of CHG and pentane-1,5-diol (PD) were determined by agar dilution assay. A series of dilutions of each compound were prepared in blood agar medium for P. acnes, and in Diagnostic Sensitivity Test (DST) agar (Oxoid, Basingstoke, UK) for C. albicans and S. aureus. Dilution series with each agent were made with freshly prepared agar at 48-50° C. Final concentration ranges were as follows: CHG solution, 0.00001 to 1% (w/v) and PD, 1-30% (v/v). The prepared plates were solidified and used immediately. For each organism an inoculum was prepared by growing organisms on blood agar. Colonies were suspended in phosphate-buffered saline (PBS) and suspensions were adjusted to approximately 6×10^6 CFU/ml for C. albicans and P. acnes and 6×10^5 CFU/mL for S. aureus. The plates were inoculated with 20 μl spots and incubated for one day for C. albicans and S. aureus and three days for P. acnes. MICs were then determined as the lowest concentration of the compound inhibiting growth of the isolates. First the MICs of CHG and PD, respectively, were determined for each micro-organism. Then, a range of combined CHG and PD concentrations were tested on each micro-organism to determine if there was synergistic activity. The definition of synergistic effect is: “An effect that is greater than the sum of the effects of the two drugs, such as the equation: 1+1 . . . ”. Each isolate was tested twice.

S. aureus (CCUG 17621) = assay: MIC by agar dilution assay, S. aureus
Description: as §1

C. albicans (CCUG 5594) = assay: MIC by agar dilution assay, C. albicans
Description: as §1

[1] = growth grade at pentane-1,5-diol 5 wt %
[2] = growth grade at pentane-1,5-diol 6 wt %
[3] = growth grade at pentane-1,5-diol 7 wt %
[4] = growth grade at pentane-1,5-diol 10 wt %
[5] = growth grade at pentane-1,5-diol 20 wt %
[6] = growth grade at pentane-1,5-diol 30 wt %
[7] = P. acnes CCUG1794, agar dilution
[8] = S. aureus CCUG17621, agar dilution
[9] = C. albicans CCUG5594, agar dilution

OCCCCCO [Pentane-1,5-diol, pentane-1,5-diol]
growth grade (P. acnes; growth grade at pentane-1,5-diol 1 wt %): +++
growth grade (P. acnes; growth grade at pentane-1,5-diol 3 wt %): ++
growth grade (P. acnes; [1]): +
growth grade (P. acnes; [2]): −
growth grade (P. acnes; [3]): −
growth grade (P. acnes; [4]): −
growth grade (P. acnes; [5]): −
growth grade (P. acnes; [6]): −
bacterial growth grade (S. aureus; [1]): +++^a
bacterial growth grade (S. aureus; [2]): ++
bacterial growth grade (S. aureus; [3]): ++
bacterial growth grade (S. aureus; growth grade at pentane-1,5-diol 8 wt %): +
bacterial growth grade (S. aureus; growth grade at pentane-1,5-diol 9 wt %): −
bacterial growth grade (S. aureus; [4]): −
bacterial growth grade (S. aureus; [5]): −
bacterial growth grade (S. aureus; [6]): −
growth grade (S. pyogenes A CCUG 4208; growth grade at 1,5-pentanediol 2 %): +++
growth grade (S. pyogenes A CCUG 4208; growth grade at 1,5-pentanediol 4 %): ++
growth grade (S. pyogenes A CCUG 4208; growth grade at 1,5-pentanediol 6 %): +
growth grade (S. pyogenes A CCUG 4208; growth grade at 1,5-pentanediol 7 %): −
growth grade (S. pyogenes A CCUG 4208; growth grade at 1,5-pentanediol 8 %): −
growth grade (S. pyogenes A CCUG 4208; growth grade at 1,5-pentanediol 9 %): −
growth grade (S. pyogenes A CCUG 4208; growth grade at 1,5-pentanediol 10 %): −
growth grade (S. pyogenes A CCUG 4208; growth grade at 1,5-pentanediol 15 %): −
MIC combined PD (P. acnes (CCUG 1794); P. acnes CCUG1794, PD in combination with CHG 0.00005 w/v %): 3 v/v %
MIC alone PD (P. acnes (CCUG 1794); [7]): 6 v/v %
Ratio (alone/combined) PD/PD + CHG (P. acnes (CCUG 1794); P. acnes CCUG1794, reduction of the MIC of PD): 2
MIC combined PD (S. aureus (CCUG 17621); S. aureus CCUG17621, PD in combination with CHG 0.00001 w/v %): 8 v/v %
MIC alone PD (S. aureus (CCUG 17621); [8]): 9 v/v %
Ratio (alone/combined) PD/PD + CHG (S. aureus (CCUG 17621); S. aureus CCUG17621, reduction of the MIC of PD): 1
MIC combined PD (C. albicans (CCUG 5594); C. albicans CCUG5594, PD in combination with CHG 0.00005 w/v %): 3 v/v %
MIC alone PD (C. albicans (CCUG 5594); [9]): 5 v/v %
Ratio (alone/combined) PD/PD + CHG (C. albicans (CCUG 5594); C. albicans CCUG5594, reduction of the MIC of PD): 2

[H]/N=C(\N/C(=N/[H])NCCCCCCNC(=N)NC(=N)Nc1ccc(Cl)cc1)Nc1ccc(Cl)cc1 [Chlorhexidine, chlorhexidine digluconate]
growth grade (P. acnes; growth grade at chlorhexidine 0.00001 wt %): +++
growth grade (P. acnes; growth grade at chlorhexidine 0.00005 wt %): ++
growth grade (P. acnes; growth grade at chlorhexidine 0.0001 wt %): −
growth grade (P. acnes; growth grade at chlorhexidine 0.0005 wt %): −
growth grade (P. acnes; growth grade at chlorhexidine 0.001 wt %): −
growth grade (P. acnes; growth grade at chlorhexidine 0.005 wt %): −
growth grade (P. acnes; growth grade at chlorhexidine 0.01 wt %): −
growth grade (P. acnes; growth grade at chlorhexidine 0.02 wt %): −
growth grade (P. acnes; growth grade at chlorhexidine 0.05 wt %): −
growth grade (P. acnes; growth grade at chlorhexidine 0.1 wt %): −
growth grade (P. acnes; growth grade at chlorhexidine 0.5 wt %): −
growth grade (P. acnes; growth grade at chlorhexidine 1 wt %): −
bacterial growth grade (S. aureus; S. aureus, growth grade at chlorhexidine 0.00001 wt %): +++
bacterial growth grade (S. aureus; S. aureus, growth grade at chlorhexidine 0.00005 wt %): ++
bacterial growth grade (S. aureus; S. aureus, growth grade at chlorhexidine 0.0001 wt %): −
bacterial growth grade (S. aureus; S. aureus, growth grade at chlorhexidine 0.0005 wt %): −
bacterial growth grade (S. aureus; S. aureus, growth grade at chlorhexidine 0.001 wt %): −
bacterial growth grade (S. aureus; S. aureus, growth grade at chlorhexidine 0.005 wt %): −
bacterial growth grade (S. aureus; S. aureus, growth grade at chlorhexidine 0.01 wt %): −
bacterial growth grade (S. aureus; S. aureus, growth grade at chlorhexidine 0.02 wt %): −
bacterial growth grade (S. aureus; S. aureus, growth grade at chlorhexidine 0.05 wt %): −
bacterial growth grade (S. aureus; S. aureus, growth grade at chlorhexidine 0.1 wt %): −
bacterial growth grade (S. aureus; S. aureus, growth grade at chlorhexidine 0.5 wt %): −
bacterial growth grade (S. aureus; S. aureus, growth grade at chlorhexidine 1 wt %): −
growth grade (S. pyogenes A CCUG 4208; growth grade at chlorhexidine digluconate 0.00001 %): +++
growth grade (S. pyogenes A CCUG 4208; growth grade at chlorhexidine digluconate 0.00005 %): +++
growth grade (S. pyogenes A CCUG 4208; growth grade at chlorhexidine digluconate 0.0001 %): +
growth grade (S. pyogenes A CCUG 4208; growth grade at chlorhexidine digluconate 0.0005 %): −
growth grade (S. pyogenes A CCUG 4208; growth grade at chlorhexidine digluconate 0.001 %): −
growth grade (S. pyogenes A CCUG 4208; growth grade at chlorhexidine digluconate 0.005 %): −
growth grade (S. pyogenes A CCUG 4208; growth grade at chlorhexidine digluconate 0.01 %): −
growth grade (S. pyogenes A CCUG 4208; growth grade at chlorhexidine digluconate 0.05 %): −
growth grade (S. pyogenes A CCUG 4208; growth grade at chlorhexidine digluconate 0.1 %): −
growth grade (S. pyogenes A CCUG 4208; growth grade at chlorhexidine digluconate 0.5 %): −
factor by which MIC of CHG was lower than PD (P. acnes (CCUG 1794); P. acnes): 9×10^−5
MIC combined CHG (P. acnes (CCUG 1794); P. acnes CCUG1794, CHG in combination with PD 3 v/v %): 0.00005 w/v %
MIC alone CHG (P. acnes (CCUG 1794); [7]): 0.0001 w/v %
Ratio (alone/combined) CHG/CHG + PD (P. acnes (CCUG 1794); P. acnes CCUG1794, reduction of the MIC of CHG): 2
factor by which MIC of CHG was lower than PD (S. aureus (CCUG 17621); S. aureus): 6×10^−5
MIC combined CHG (S. aureus (CCUG 17621); S. aureus CCUG17621, CHG in combination with PD 8 v/v %): 0.00001 w/v %
MIC alone CHG (S. aureus (CCUG 17621); [8]): 0.0001 w/v %
Ratio (alone/combined) CHG/CHG + PD (S. aureus (CCUG 17621); S. aureus CCUG17621, reduction of the MIC of CHG): 10
factor by which MIC of CHG was lower than PD (C. albicans (CCUG 5594); C. albicans): 1×10^−4
MIC combined CHG (C. albicans (CCUG 5594); C. albicans CCUG5594, CHG in combination with PD 3 v/v %): 0.00005 w/v %
MIC alone CHG (C. albicans (CCUG 5594); [9]): 0.0005 w/v %
Ratio (alone/combined) CHG/CHG + PD (C. albicans (CCUG 5594); C. albicans CCUG5594, reduction of the MIC of CHG): 10
